{
  "source": "patent US20070087364A1",
  "about": "“In vitro erythroid micronucleus assay for genotoxicity” (Massachusetts Institute of Technology, priority 2005, published 2007)",
  "key": {"bone marrow": {"tested_on": "bone marrow", "details": "dose concentrations up to 20 μM, in vitro dosing (Glassner 1999); cited from earlier work"}, "[1]": {"tested_on": "Lin^− fraction of C57BL/6J (mouse) BM", "assay": "in vitro erythroid micronucleus assay, erythropoietic culture of wild-type Lin− bone marrow"}, "MGMT^−/− Lin^− BM": {"tested_on": "MGMT^−/− Lin^− BM", "assay": "in vitro erythroid micronucleus assay, MGMT−/− Lin− bone marrow", "details": "introduced 10 h, 23 h or 30 h after seeding, harvest 72 h"}, "[2]": {"details": "bolus injection of 25 mg/kg, cited from earlier work"}, "[3]": {"tested_on": "bone marrow PCEs (reticulocytes)", "details": "mouse; cited from earlier work"}, "Lin^− bone marrow cells [4]": {"tested_on": "Lin^− bone marrow cells", "assay": "PCE growth of Lin− bone marrow by acridine orange histology, fractional-factorial design with regression", "format": "cell-based, mouse", "procedure": "(FIG. 14A) Lin^− bone marrow cells were cultured for 1 day in media containing serum and various combinations of soluble growth factors as listed on the abscissa; these specific 6-factor combinations constitute an orthogonal fractional-factorial design (also represented in Table 1). After 1 day, all soluble erythropoietic growth factors were removed and the cells were cultured for either 2 or 3 additional days in medium with serum. At harvest, the cells were removed from culture and late erythropoietic growth was quantified. For each culture, PCE numbers were calculated by taking the product of the total cell count and the PCE fraction of the population as determined by differential cell counting after staining with acridine orange (>2000 cells scored per culture). Growth calculations were normalized to input cell numbers and are presented as the mean of 3 independent cultures +/− the standard deviation. (FIG. 14B) Culture methods that yielded similar populations at harvest were grouped into subsets (α, β, γ, and δ); growth characteristics for these subsets were quantified and representative micrographs were acquired. […] Cultures exposed to SCF but not Epo (subset γ) expanded approximately 2.5-fold in total cell numbers, but again contained less than 3% PCEs. Cultures exposed to both Epo and SCF (subset β) expanded approximately 13-fold in total cell numbers and yielded populations in which approximately 31% of all cells are PCEs. Finally, cultures exposed to both Epo and Dex but not SCF (subset δ) expanded approximately 4-fold while producing populations in which approximately 51% of all cells are PCEs. Growth calculations are presented as the mean of all cultures in a subset ± the standard deviation. Scale bars: 20 μm.\nTable I is an experimental design chart that provides the specific details of the experimental conditions that were examined to generate FIGS. 11, 12, 14 and 16. Specifically, this experimental design is a two-level, minimum-aberration, fractional-factorial design of resolution IV (a 2IV^6-2 minimum-aberration design). The full-factorial design was not performed because an experiment of this size (2^6 cultures for each biological singlet) was logisitically infeasible. This experiment was designed in order to estimate all the main (primary) interactions between the culture response (PCEs produced) and the individual parameters included in the design. In addition, many of the secondary interactions (between the culture response and various parameter-pairs) were estimable by conducting this design (see FIGS. 12 and 16), although some of these secondary interactions were confounded with other secondary interactions. Each condition listed in the design table was tested in biological triplicate, and each triplicate set was cultured under three different atmospheric conditions, to yield a total of nine culture wells per listed condition.\nFurthermore, some variability between various Lin^− BM isolations was observed over the course of preliminary flow cytometric studies. Therefore, a definitive study was conducted that used aliquots of a large, well-mixed Lin^− population that was isolated from the combined BM of 15 mice. In this study, flow cytometry was replaced by histological analysis to provide more rigorous quantification of a population's PCE content. This study was designed to estimate the relative stimulatory effect of various, previously-identified erythroid growth factors on culture performance. Specifically a minimum-aberration, fractional-factorial experimental design (a 2IV^6-2 minimum-aberration design) was conducted to estimate all the main (primary) interactions between the culture response, which was PCEs produced (as assessed by histology), and the individual parameters included in the design (see Table I, and FIGS. 11, 12, 14 and 16). […]"}, "Lin^− bone marrow cells [5]": {"tested_on": "Lin^− bone marrow cells", "assay": "erythropoietic growth of Lin− bone marrow quantified by flow cytometry (Ter-119/CD71) and total cell counts", "format": "cell-based, mouse", "details": "Epo 5 U/mL, SCF 0, 72 h, CO2 0.5%", "procedure": "FIG. 13 is a bar graph of data obtained from experiments performed to determined the effect of Epo on the erythropoietic growth of Lin− bone marrow cells. Lin^− bone marrow cells were cultured for 1 day in media containing serum along with Epo at variable concentrations. Epo was removed from the culture media at the end of 1 day, and culture was continued for 2 more days in media with serum. At the end of the third day, the resulting populations were removed from culture and erythropoietic growth was quantified as the product of total cell counts and flow cytometric region fractions. Specifically, erythroid-specific growth at two late stages was calculated for each culture by taking the product of the total cell count and the fraction of the population found to have the indicated surface phenotype (determined by flow cytometry). These erythroid growth values were then normalized to the number of Lin^− cells seeded.\nStudies were conducted by stimulating Lin^− mouse BM with specifically defined media formulations for 24 hours before replacing the medium to a minimal erythroid-differentiation medium (EDM) and culturing for an additional 2-3 days. This EDM contains 20% FBS, 2 mM L-glutamine, and 0.1 mM β-mercaptoethanol in IMDM, whereas the “Day 1” medium consists of IMDM with 15% FBS, 2 mM L-glutamine, 0.1 mM β-mercaptoethanol, 1% BSA, 200 μg holo-transferrin, 10 μg/mL insulin as well as further supplements (some specific media formulations listed in Table I). Upon harvest, the number of late-stage erythroid cells and enucleated erythrocytes produced over the culture period was analyzed. […] Although the most relevant endpoint for these cultures is PCEs-produced per primary BM cell, the number of R4 and R5 cells in the post-culture population, as measured by flow ctyometry, provided a reasonable metric of PCE content for early screening studies. More rigorous quantification, via histological analysis, was then employed in a more detailed analysis to generate FIGS. 11, 12, 14 and 16.\nAs shown above, short-term erythropoietic culture can be used to detect genotoxic exposure. Quantitative studies on the erythropoietic growth of Lin^− BM after stimulus with physiologic erythropoietic factors were used to further improve the culture methodology and thus increase the potential throughput of the in vitro erythroid MN assay described here. Initially, flow cytometry was used to define late-erythroid cells by subdividing the Ter-119^+ population based on CD71 expression (regions shown in FIG. 4) to estimate the fraction of a culture that acquired late-erythroid surface markers. The products of flow cytometric region statistics and total cell counts were calculated and then normalized to input cell numbers to quantify erythropoietic growth in a culture.\nTable II. in vitro erythroid growth is modulated by physiologic erythropoietic stimuli. The culture conditions listed on the left-hand side of the table specify the environment in which a growth measurement was made. All soluble growth factors used in these experiments were removed from culture after 1 day. An X in this first section of the table indicates the variable parameter found to have a significant erythropoietic growth-effect. The measured effect of that parameter on erythropoietic growth is then given on the right-hand side of the table. In this right-hand section of the table, the first item listed is the defining surface phenotype of the erythropoietic population. […] Finally, the level of significance (P value) is given. Note that the first 4 entries to this table were taken from FIG. 13; other entries were obtained from similar figures. P values were determined by the two-tailed t test, except for the 3 italicized P values, which were determined using the one-tailed t test."}},
  "note": "“Also recorded” adds a separate entry of the source.",
  "data": [
    {"molecule": "O=NN(CCCl)C(=O)NCCCl", "note": "[BCNU, 1,3-bis (2-chloroethyl) -1-nitrosourea]", "values": [
      {"measurement": "cell survival as measured by colony assay", "setting": "bone marrow", "value": "~100", "unit": "%"},
      {"measurement": "MN frequency in the PCE population (MN-PCE frequency)", "setting": "[1]; 20 μM introduced 7 hours after seeding, harvest after 72 hours, vs vehicle control", "value": "provides a clear signal of genotoxicity; also recorded: significantly different than those exposed to vehicle control alone; also recorded: an increase in the frequency of MN-PCEs"},
      {"measurement": "cell killing and MN formation", "setting": "[1]; MGMT+/+ BM cultures treated 4 h after culture initiation (data not shown)", "value": "cell-killing dominated and very little MN formation was observed"},
      {"measurement": "MN frequency, MGMT−/− vs wild-type cultures", "setting": "MGMT^−/− Lin^− BM; 10 μM and 20 μM doses", "value": "significant increases in MN frequency; also recorded: more sensitive to growth-inhibition and MN-formation"},
      {"measurement": "cell survival (growth inhibition), MGMT−/− vs wild-type cultures", "setting": "MGMT^−/− Lin^− BM", "value": "decreased cell survival"},
      {"measurement": "peak plasma concentration", "setting": "[2]; after 1 minute (Meulemans 1989)", "value": "~0.4", "unit": "mM"},
      {"measurement": "plasma level", "setting": "[2]; within the next 15 minutes (Meulemans 1989)", "value": "approximately 40 μM"}
    ]},
    {"molecule": "COS(C)(=O)=O", "note": "[MMS, methylmethane sulfonate]", "values": [
      {"measurement": "result in the in vivo MN assay", "setting": "[3]", "value": "test positive"}
    ]},
    {"molecule": "C[C@@H]1C[C@H]2[C@@H]3CCC4=CC(=O)C=C[C@]4(C)[C@@]3(F)[C@@H](O)C[C@]2(C)[C@@]1(O)C(=O)CO", "note": "[Dex, Dexamethasone, reference compound]", "values": [
      {"measurement": "Scaled Estimate (model parameter, PCE growth)", "setting": "Lin^− bone marrow cells [4]; complete multi-linear regression model (n3=27), parameters scaled 0 to 1", "value": "−0.298"},
      {"measurement": "Scaled Estimate (model parameter, PCE growth)", "setting": "Lin^− bone marrow cells [4]; reduced multi-linear regression model (n3=17), FIG. 16", "value": "−0.333"},
      {"measurement": "Avg Growth +/− SD", "setting": "Lin^− bone marrow cells [5]; [Dex] = 1 μM, Ter-119+ CD71+, 20% O2, Fn 2, Ins 10, IGF-I 10 ng/mL", "value": "0.278 +/− 0.102 per Lin^− cell seeded"},
      {"measurement": "Avg Growth +/− SD", "setting": "Lin^− bone marrow cells [5]; [Dex] = 1 μM, Ter-119+ CD71−, 20% O2, Fn 2, Ins 10, IGF-I 0", "value": "0.016 +/− 0.006 per Lin^− cell seeded"},
      {"measurement": "Avg Growth +/− SD", "setting": "Lin^− bone marrow cells [5]; [Dex] = 10 μM, Ter-119+ CD71−, 20% O2, Fn 2, Ins 10, IGF-I 0", "value": "0.028 +/− 0.016 per Lin^− cell seeded"}
    ]}
  ]
}
